Compound in one assay: NC(=O)CCCCC1CCSS1 [lipoamide]
Put plainly: thermal stability z-score vs DMSO; higher = more thermally stabilized by treatment. The conditions noted are these: HeLa, lipoamide concentration 100 µM. As to the method:
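Cellular thermal proteome profiling in HeLa cells. Cells were treated with 100 µM lipoamide for 1 h, with or without 1 mM arsenate for a further 1 h, then heated to ten temperatures (37-66.3 °C), and soluble protein was quantified by TMT mass spectrometry relative to 0.1% DMSO controls. The thermal stability score (sum of log2 fold changes minus the abundance score) was transformed to a z-score; mean of n = 3 experiments.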

Compound in a further assay: O=[As]([O-])(O)O.[K+] [potassium arsenate]
Described as above. Conditions: HeLa; arsenate concentration 1 mM. The protocol:
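Cellular thermal proteome profiling in HeLa cells treated with 1 mM arsenate for 1 h (DMSO pretreatment), heated to ten temperatures (37-66.3 °C). Soluble protein was quantified by TMT mass spectrometry relative to DMSO controls; the thermal stability score was transformed to a z-score; mean of n = 3 experiments.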

Where [1] appears, read: arsenate co-treatment: 1 mM arsenate 1 h.
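Further: each temperature applied for 3 min, abundance score taken as mean log2 fold change at the two lowest temperatures, z-score obtained by mean subtraction and division by SD.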

Chain of UniProt P51610 (P51610 whole entry): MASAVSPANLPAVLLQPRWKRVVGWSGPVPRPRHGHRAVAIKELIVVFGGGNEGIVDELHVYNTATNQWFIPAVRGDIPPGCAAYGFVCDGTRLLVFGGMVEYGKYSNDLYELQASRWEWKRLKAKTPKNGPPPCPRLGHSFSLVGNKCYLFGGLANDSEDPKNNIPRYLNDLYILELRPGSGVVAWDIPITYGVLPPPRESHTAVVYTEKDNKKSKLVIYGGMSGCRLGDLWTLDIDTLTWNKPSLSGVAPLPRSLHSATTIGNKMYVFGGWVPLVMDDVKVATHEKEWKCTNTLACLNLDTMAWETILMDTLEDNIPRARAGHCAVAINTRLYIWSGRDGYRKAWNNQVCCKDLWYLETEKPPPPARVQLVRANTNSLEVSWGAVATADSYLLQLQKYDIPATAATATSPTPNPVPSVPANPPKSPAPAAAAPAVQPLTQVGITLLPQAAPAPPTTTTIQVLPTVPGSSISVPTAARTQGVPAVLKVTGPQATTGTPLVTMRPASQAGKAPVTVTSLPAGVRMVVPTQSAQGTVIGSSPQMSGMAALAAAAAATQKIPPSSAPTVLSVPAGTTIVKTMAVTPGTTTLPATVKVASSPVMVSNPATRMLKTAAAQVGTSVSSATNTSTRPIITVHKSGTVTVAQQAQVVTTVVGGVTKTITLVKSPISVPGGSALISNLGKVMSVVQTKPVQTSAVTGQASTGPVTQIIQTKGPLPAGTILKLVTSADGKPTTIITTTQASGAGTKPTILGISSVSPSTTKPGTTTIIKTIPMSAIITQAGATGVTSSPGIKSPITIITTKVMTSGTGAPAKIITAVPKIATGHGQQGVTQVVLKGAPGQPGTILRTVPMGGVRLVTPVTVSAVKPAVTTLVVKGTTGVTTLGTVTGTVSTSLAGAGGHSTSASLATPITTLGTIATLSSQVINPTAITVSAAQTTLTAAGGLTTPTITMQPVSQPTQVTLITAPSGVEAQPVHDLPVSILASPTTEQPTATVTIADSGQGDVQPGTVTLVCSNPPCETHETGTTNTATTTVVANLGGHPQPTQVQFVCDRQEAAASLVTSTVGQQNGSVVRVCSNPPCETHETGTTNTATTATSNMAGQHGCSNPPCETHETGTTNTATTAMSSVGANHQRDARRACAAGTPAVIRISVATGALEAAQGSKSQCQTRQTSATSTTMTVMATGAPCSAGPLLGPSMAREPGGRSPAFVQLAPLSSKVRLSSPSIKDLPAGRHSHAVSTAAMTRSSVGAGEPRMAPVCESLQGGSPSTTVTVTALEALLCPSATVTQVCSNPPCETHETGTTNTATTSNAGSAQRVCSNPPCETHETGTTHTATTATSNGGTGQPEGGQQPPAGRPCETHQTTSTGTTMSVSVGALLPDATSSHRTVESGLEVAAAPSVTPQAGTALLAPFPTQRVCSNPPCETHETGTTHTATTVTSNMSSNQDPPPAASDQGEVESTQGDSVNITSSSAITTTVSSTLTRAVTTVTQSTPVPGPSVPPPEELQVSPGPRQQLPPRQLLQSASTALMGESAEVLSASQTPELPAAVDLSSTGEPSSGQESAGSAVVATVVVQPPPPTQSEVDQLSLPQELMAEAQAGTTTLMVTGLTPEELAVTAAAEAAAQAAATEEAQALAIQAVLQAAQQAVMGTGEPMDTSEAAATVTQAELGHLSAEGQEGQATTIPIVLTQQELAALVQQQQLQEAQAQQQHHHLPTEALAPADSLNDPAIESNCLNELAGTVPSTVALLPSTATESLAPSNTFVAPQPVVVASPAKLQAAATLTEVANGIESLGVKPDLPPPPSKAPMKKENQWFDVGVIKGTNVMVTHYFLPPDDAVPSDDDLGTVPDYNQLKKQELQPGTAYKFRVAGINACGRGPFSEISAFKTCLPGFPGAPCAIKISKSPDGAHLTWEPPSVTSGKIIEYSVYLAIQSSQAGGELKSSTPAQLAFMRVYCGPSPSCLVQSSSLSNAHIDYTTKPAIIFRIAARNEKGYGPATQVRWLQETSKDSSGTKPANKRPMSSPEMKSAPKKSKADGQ
Chain of UniProt Q15382 (Q15382 whole entry): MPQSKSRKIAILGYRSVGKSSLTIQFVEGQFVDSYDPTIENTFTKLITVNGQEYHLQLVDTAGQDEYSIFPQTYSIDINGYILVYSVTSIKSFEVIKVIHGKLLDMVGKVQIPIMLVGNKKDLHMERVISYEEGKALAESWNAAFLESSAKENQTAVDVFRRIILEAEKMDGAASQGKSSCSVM
Chain of UniProt P62745 (P62745 whole entry): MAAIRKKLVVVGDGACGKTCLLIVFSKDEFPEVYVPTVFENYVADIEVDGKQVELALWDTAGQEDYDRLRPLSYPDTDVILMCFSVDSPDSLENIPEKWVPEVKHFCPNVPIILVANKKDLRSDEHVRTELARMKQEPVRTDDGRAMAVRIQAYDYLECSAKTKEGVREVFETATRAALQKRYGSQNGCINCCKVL
Chain of UniProt Q9BWM7 (Q9BWM7 whole entry): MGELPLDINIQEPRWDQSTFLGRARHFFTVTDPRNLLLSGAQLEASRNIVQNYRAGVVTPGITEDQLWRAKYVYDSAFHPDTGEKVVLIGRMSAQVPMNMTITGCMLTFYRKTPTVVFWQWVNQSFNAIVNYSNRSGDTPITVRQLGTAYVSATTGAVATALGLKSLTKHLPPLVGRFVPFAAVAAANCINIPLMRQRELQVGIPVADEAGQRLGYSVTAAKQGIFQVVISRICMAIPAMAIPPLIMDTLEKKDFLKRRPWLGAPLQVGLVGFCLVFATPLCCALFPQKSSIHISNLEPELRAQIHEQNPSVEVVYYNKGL
Chain of UniProt Q8TAF3 (Q8TAF3 whole entry): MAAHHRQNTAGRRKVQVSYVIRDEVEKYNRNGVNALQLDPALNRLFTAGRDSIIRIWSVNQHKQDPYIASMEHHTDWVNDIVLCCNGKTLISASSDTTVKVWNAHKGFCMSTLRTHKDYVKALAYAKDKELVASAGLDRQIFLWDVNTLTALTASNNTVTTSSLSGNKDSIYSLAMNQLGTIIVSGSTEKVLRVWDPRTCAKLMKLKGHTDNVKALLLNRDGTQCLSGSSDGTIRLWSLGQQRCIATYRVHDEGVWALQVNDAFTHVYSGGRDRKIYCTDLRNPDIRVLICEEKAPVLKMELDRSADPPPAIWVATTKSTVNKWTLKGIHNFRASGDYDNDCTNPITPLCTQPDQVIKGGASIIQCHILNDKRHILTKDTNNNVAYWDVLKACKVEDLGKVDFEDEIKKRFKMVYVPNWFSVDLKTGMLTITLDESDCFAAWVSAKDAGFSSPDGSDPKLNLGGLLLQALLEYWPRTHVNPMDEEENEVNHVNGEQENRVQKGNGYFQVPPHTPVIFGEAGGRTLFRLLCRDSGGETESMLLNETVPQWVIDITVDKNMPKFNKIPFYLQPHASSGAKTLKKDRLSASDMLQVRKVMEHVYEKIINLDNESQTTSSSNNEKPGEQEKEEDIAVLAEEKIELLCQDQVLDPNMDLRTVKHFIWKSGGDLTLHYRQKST
Chain of UniProt A6NKF1 (A6NKF1 whole entry): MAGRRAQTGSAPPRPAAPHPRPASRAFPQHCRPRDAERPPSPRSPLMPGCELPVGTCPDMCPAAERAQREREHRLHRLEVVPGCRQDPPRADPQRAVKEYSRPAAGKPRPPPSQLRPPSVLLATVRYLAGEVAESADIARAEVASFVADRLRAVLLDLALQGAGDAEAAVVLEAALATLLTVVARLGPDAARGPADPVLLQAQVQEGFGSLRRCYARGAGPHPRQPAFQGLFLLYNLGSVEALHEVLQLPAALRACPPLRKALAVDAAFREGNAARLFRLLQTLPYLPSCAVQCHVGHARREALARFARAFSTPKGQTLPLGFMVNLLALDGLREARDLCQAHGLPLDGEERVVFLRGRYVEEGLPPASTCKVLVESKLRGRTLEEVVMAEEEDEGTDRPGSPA
Chain of UniProt Q9NXX6 (Q9NXX6 whole entry): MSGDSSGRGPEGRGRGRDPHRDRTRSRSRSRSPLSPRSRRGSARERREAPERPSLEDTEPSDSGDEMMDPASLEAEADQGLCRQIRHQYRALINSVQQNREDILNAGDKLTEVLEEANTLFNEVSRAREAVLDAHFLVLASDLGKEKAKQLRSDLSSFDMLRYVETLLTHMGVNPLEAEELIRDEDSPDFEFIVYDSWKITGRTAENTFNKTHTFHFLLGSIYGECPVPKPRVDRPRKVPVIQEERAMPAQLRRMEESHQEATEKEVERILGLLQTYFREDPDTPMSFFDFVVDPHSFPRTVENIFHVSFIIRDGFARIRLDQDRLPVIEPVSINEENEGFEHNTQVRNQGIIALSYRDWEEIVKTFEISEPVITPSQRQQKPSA
Chain of UniProt Q15046 (Q15046 whole entry, looked up): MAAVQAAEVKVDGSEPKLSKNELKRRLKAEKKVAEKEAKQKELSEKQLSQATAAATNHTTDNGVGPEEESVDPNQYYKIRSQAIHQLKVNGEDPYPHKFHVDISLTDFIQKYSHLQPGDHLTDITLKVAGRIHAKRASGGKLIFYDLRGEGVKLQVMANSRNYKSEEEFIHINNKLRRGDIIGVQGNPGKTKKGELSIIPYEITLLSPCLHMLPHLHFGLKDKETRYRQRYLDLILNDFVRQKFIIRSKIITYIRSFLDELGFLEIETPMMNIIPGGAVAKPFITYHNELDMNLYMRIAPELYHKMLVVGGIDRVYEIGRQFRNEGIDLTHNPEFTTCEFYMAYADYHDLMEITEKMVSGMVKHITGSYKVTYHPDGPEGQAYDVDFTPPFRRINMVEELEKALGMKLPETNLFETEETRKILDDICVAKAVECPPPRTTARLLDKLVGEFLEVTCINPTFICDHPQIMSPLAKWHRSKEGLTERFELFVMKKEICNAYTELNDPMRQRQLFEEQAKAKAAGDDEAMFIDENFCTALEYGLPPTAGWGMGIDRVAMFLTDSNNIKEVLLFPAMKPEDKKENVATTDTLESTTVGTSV
Chain of UniProt Q9UBQ5 (Q9UBQ5 whole entry): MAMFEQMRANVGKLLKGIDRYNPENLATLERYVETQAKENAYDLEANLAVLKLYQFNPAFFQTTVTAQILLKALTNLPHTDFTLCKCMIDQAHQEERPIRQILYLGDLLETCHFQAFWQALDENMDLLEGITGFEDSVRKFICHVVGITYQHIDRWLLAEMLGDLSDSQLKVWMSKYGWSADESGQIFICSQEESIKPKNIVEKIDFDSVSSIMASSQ

Regarding VIMP (UniProt Q9BQE4), the thermal stability z-score with lipoamide (setting [1]) was 0.458; with lipoamide (arsenate co-treatment: none), 0.457; in the assay with potassium arsenate, -0.948.

As for PSAP (UniProt P07602), the figures for the thermal stability z-score with lipoamide (setting [1]), in the assay with lipoamide (arsenate co-treatment: none) and in the assay with potassium arsenate were 0.0503, -0.136 and -0.336, respectively.

Consider WDR48 (UniProt Q8TAF3), for which the values for the thermal stability z-score in the assay with lipoamide (setting [1]), with lipoamide (arsenate co-treatment: none) and with potassium arsenate were 0.197, 0.3 and 1.13, respectively.

On to RSL1D1 (UniProt O76021), for which the thermal stability z-score with lipoamide (setting [1]) was 0.414; with lipoamide (arsenate co-treatment: none), -0.108; with potassium arsenate it was -0.48.

Consider ZFYVE19 (UniProt Q96K21), for which the figures for the thermal stability z-score with lipoamide (setting [1]), with lipoamide (arsenate co-treatment: none) and in the assay with potassium arsenate were -0.473, -0.599 and -3.34, respectively.

With ITGA6 (UniProt P23229), the thermal stability z-score with lipoamide (setting [1]) is -0.0761; in the assay with lipoamide (arsenate co-treatment: none), 0.174; with potassium arsenate, 0.156.

On to HELZ (UniProt P42694), for which the thermal stability z-score with lipoamide (setting [1]) is -0.153; in the assay with lipoamide (arsenate co-treatment: none), -0.0553; with potassium arsenate, -0.122.

For PPP1CA (UniProt P62136), the thermal stability z-score is 0.221 with lipoamide (setting [1]), -0.27 with lipoamide (arsenate co-treatment: none) and -0.971 in the assay with potassium arsenate.

CASP8 (UniProt Q14790): the thermal stability z-score with lipoamide (setting [1]) is -2.33; in the assay with lipoamide (arsenate co-treatment: none), -0.106; with potassium arsenate, -0.648.

As for TLCD1 (UniProt Q96CP7), the thermal stability z-score is -0.0961 with lipoamide (setting [1]), -0.035 with lipoamide (arsenate co-treatment: none) and 0.587 with potassium arsenate.

For the target CSNK2A2 (UniProt P19784), the thermal stability z-score was 0.339 with lipoamide (setting [1]), 0.183 with lipoamide (arsenate co-treatment: none) and 0.00534 with potassium arsenate.

On to RHEB (UniProt Q15382), for which the thermal stability z-score is -0.13 with lipoamide (setting [1]), 0.625 with lipoamide (arsenate co-treatment: none) and 1.46 with potassium arsenate.

For the target OTUD4 (UniProt Q01804), the thermal stability z-score with lipoamide (setting [1]) was 0.168; with lipoamide (arsenate co-treatment: none), 0.183; with potassium arsenate, 0.258.

With ATG4C (UniProt Q96DT6), the thermal stability z-score was found to be 0.0282 in the assay with lipoamide (setting [1]), 0.0873 with lipoamide (arsenate co-treatment: none) and 0.0488 with potassium arsenate.

As to AKIRIN2 (UniProt Q53H80), the thermal stability z-score with lipoamide (setting [1]) is 0.0163; in the assay with lipoamide (arsenate co-treatment: none) it was -0.00376; with potassium arsenate, 0.307.

Turning to UROD (UniProt P06132), the thermal stability z-score with lipoamide (setting [1]) is 0.0739; with lipoamide (arsenate co-treatment: none), 0.0184; in the assay with potassium arsenate, -0.0518.

Consider KIF23 (UniProt Q02241), for which the thermal stability z-score was 0.207 with lipoamide (setting [1]), 0.324 in the assay with lipoamide (arsenate co-treatment: none) and -0.0543 with potassium arsenate.

As to ACTN1 (UniProt P12814), the thermal stability z-score with lipoamide (setting [1]) turned out to be 0.249; with lipoamide (arsenate co-treatment: none), 0.339; in the assay with potassium arsenate, 0.163.

Take EIF3K (UniProt Q9UBQ5): the results for the thermal stability z-score in the assay with lipoamide (setting [1]), in the assay with lipoamide (arsenate co-treatment: none) and with potassium arsenate were -0.353, 0.0198 and 0.00475, respectively.

With TRAF3IP1 (UniProt Q8TDR0), the results for the thermal stability z-score with lipoamide (setting [1]), with lipoamide (arsenate co-treatment: none) and with potassium arsenate were 0.519, 0.373 and 0.694, respectively.

Regarding RHOB (UniProt P62745), the figures for the thermal stability z-score in the assay with lipoamide (setting [1]), with lipoamide (arsenate co-treatment: none) and in the assay with potassium arsenate were 0.0865, 0.065 and -0.245, respectively.

Take CAPN1 (UniProt P07384): the results for the thermal stability z-score with lipoamide (setting [1]), with lipoamide (arsenate co-treatment: none) and with potassium arsenate were -0.0396, -0.213 and -0.369, respectively.

For the target SFXN3 (UniProt Q9BWM7), the thermal stability z-score in the assay with lipoamide (setting [1]) amounted to 0.507; with lipoamide (arsenate co-treatment: none) it was 0.279; with potassium arsenate, 0.16.

For NSMCE4A (UniProt Q9NXX6), the thermal stability z-score was -0.245 in the assay with lipoamide (setting [1]), -0.35 with lipoamide (arsenate co-treatment: none) and -0.055 with potassium arsenate.

U2SURP (UniProt O15042): the values for the thermal stability z-score with lipoamide (setting [1]), with lipoamide (arsenate co-treatment: none) and with potassium arsenate were 0.962, 0.428 and 0.507, respectively.

As for KARS (UniProt Q15046), the thermal stability z-score with lipoamide (setting [1]) is -0.646; in the assay with lipoamide (arsenate co-treatment: none), -0.663; with potassium arsenate, 1.5.

CPSF6 (UniProt Q16630): the thermal stability z-score came to 0.848 with lipoamide (setting [1]), 1.21 with lipoamide (arsenate co-treatment: none) and 0.452 in the assay with potassium arsenate.

Take KIN (UniProt O60870): the thermal stability z-score in the assay with lipoamide (setting [1]) is -0.0116; in the assay with lipoamide (arsenate co-treatment: none), 0.0339; with potassium arsenate, -0.174.

Turning to PDDC1 (UniProt Q8NB37), the thermal stability z-score in the assay with lipoamide (setting [1]) was 0.604; in the assay with lipoamide (arsenate co-treatment: none), -0.174; with potassium arsenate it was -2.18.

On to DNAH1 (UniProt Q9P2D7), for which the results for the thermal stability z-score with lipoamide (setting [1]), with lipoamide (arsenate co-treatment: none) and in the assay with potassium arsenate were -0.00768, 0.171 and 0.0212, respectively.

Consider RBBP6 (UniProt Q7Z6E9), for which the figures for the thermal stability z-score in the assay with lipoamide (setting [1]), with lipoamide (arsenate co-treatment: none) and in the assay with potassium arsenate were 0.06, -0.0854 and -0.263, respectively.

On to HELLS (UniProt Q9NRZ9), for which the thermal stability z-score is -0.0381 in the assay with lipoamide (setting [1]), -0.0408 with lipoamide (arsenate co-treatment: none) and -0.282 with potassium arsenate.

FAM96B (UniProt Q9Y3D0): the thermal stability z-score is -0.113 with lipoamide (setting [1]), -0.0578 in the assay with lipoamide (arsenate co-treatment: none) and -0.128 in the assay with potassium arsenate.

Consider AMZ2 (UniProt Q86W34), for which the values for the thermal stability z-score in the assay with lipoamide (setting [1]), in the assay with lipoamide (arsenate co-treatment: none) and with potassium arsenate were 0.33, -0.032 and 0.211, respectively.

Take PAF1 (UniProt Q8N7H5): the values for the thermal stability z-score with lipoamide (setting [1]), in the assay with lipoamide (arsenate co-treatment: none) and with potassium arsenate were 0.0739, -0.631 and -0.714, respectively.

Consider RNF216 (UniProt Q9NWF9), for which the thermal stability z-score is -0.0849 in the assay with lipoamide (setting [1]), 0.015 with lipoamide (arsenate co-treatment: none) and 0.679 in the assay with potassium arsenate.

On to HCFC1 (UniProt P51610), for which the thermal stability z-score with lipoamide (setting [1]) is 1.26; in the assay with lipoamide (arsenate co-treatment: none), 1.15; with potassium arsenate, -0.101.

Turning to DDX20 (UniProt Q9UHI6), the thermal stability z-score with lipoamide (setting [1]) was -0.457; with lipoamide (arsenate co-treatment: none), -0.527; in the assay with potassium arsenate, -0.763.

Consider QRICH1 (UniProt Q2TAL8), for which the thermal stability z-score was -0.132 with lipoamide (setting [1]), -0.0369 in the assay with lipoamide (arsenate co-treatment: none) and 0.0998 in the assay with potassium arsenate.

Consider SAC3D1 (UniProt A6NKF1), for which the thermal stability z-score in the assay with lipoamide (setting [1]) is -1.55; with lipoamide (arsenate co-treatment: none), -1.63; with potassium arsenate, -1.27.

As for MRGBP (UniProt Q9NV56), the thermal stability z-score is 0.386 in the assay with lipoamide (setting [1]), -0.212 in the assay with lipoamide (arsenate co-treatment: none) and -0.45 in the assay with potassium arsenate.

VPS41 (UniProt P49754): the thermal stability z-score was -0.0442 with lipoamide (setting [1]), -0.511 with lipoamide (arsenate co-treatment: none) and -0.161 with potassium arsenate.

(Values after the supplement of paper PMC12463676, “Small-molecule dissolution of stress granules by redox modulation benefits ALS models” (Nature Chemical Biology, 2025).)
